US20150250786A1, “PYRIMIDINE HYDROXY AMIDE COMPOUNDS AS PROTEIN DEACETYLASE INHIBITORS AND METHODS OF USE THEREOF” (THE TRUSTEES OF THE UNIVERSITY OF PENNSYLVANIA, priority 2012, published 2015)
Read-outs that look alike come from different tables or passages of the source.

Columns and labels:
[1] = system: all other class II HDAC isoforms; assay: HDAC inhibition, other class II isoforms; settings: read-out: IC50 against all other class II HDAC isoforms
HDAC6 = target: T1, HDAC6 (Homo sapiens, UniProt Q9UBN7); assay: HDAC enzyme assay, HDAC6
T1 sequence (Q9UBN7 1-1215): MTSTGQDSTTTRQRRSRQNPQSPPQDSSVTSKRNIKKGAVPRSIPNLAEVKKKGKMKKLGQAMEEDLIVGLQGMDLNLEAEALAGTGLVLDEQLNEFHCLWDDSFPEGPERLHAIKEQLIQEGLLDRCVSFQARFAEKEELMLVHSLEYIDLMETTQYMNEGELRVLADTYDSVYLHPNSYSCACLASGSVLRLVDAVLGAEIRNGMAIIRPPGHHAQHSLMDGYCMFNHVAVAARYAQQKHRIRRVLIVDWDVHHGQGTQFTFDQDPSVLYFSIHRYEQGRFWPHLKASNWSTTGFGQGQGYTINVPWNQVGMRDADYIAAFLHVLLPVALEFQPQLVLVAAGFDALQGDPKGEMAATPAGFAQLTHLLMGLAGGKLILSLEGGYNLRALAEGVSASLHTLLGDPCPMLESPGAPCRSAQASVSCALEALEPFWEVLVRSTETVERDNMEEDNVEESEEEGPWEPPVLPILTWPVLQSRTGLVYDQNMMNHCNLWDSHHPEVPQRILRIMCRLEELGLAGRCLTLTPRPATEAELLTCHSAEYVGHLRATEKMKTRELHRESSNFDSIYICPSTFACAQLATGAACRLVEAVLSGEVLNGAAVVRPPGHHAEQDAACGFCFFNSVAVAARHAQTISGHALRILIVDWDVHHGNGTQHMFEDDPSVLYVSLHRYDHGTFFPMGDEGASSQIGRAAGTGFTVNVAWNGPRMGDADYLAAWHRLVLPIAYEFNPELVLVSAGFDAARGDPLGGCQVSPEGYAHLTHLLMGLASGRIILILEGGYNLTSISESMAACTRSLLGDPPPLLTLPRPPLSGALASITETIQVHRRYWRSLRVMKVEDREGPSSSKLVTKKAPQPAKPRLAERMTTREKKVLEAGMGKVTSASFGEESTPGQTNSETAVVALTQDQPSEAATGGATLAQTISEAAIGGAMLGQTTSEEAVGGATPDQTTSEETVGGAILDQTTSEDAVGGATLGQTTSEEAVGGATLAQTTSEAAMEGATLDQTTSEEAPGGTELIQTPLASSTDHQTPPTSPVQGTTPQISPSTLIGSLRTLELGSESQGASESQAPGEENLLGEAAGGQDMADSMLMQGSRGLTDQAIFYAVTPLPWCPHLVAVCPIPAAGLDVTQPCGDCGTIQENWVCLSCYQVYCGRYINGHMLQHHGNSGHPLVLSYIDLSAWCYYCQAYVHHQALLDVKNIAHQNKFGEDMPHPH

HDAC3 = HDAC3 (Homo sapiens, UniProt O15379); assay: HDAC enzyme assay, HDAC3
Chain of HDAC3 (O15379 whole entry): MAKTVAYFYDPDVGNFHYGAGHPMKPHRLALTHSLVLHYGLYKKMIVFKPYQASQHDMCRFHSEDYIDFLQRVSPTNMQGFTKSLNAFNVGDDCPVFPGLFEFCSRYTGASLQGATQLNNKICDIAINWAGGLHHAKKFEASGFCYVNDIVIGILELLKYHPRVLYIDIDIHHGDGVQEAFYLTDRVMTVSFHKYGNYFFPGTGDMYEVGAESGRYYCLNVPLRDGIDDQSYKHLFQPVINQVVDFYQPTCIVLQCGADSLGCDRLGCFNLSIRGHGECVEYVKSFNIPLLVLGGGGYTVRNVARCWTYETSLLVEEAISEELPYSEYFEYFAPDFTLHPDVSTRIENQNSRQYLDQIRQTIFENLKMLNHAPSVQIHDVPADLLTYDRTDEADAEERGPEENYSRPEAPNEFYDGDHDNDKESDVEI
Chain of HDAC3 (Q9Y618 395-489 partner limits assumed): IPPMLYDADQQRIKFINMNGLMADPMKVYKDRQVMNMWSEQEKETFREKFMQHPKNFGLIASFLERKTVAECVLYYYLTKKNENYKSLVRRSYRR

[2] = system: NIH Swiss mice; C57BL/6J HDAC6 WT and KO mice; assay: Tail suspension test (TST); assay type: in vivo, mouse; settings: NIH Swiss mice
[3] = system: α-tubulin acetylation in mouse whole brain lysates; assay: α-tubulin acetylation in whole brain lysates after single i.p. administration; assay type: in vivo; settings: compound 73 5 mg/kg, compound 101 50 mg/kg, tubastatin A 10 mg/kg, 30 min, 1 h, 4 h
[4] = Body weight gain during chronic treatment; assay type: in vivo, mouse; settings: 4 weeks of treatment
mice [5] = assay: Open-field test; assay type: in vivo, mouse
mice [6] = assay: Marble-burying task; assay type: in vivo, mouse; settings: acute administration
[7] = system: RN46A-B14 serotonergic cell line; assay: α-tubulin K40 acetylation in RN46A-B14 cells (Western blot); assay type: cell-based, rat; settings: 4 hours; TSA 0.6 μM, others 2.5 μM
Protocol: In FIG. 3, it was observed that subchronic treatment, consisting of 5 treatments at 48, 28, 24, 4 and ½ hours before sacrifice, led to greater increase in tubulin acetylation than did chronic treatment of 1 injection/day for 21 days. For cell culture, RN46B cells were treated for with 0.25, 2.5 or 25 μM drug in DMSO for 1, 4 or 24 hours as indicated. Tukey post-hoc analysis: * P=0.01 to 0.05, ** P=0.001-0.01, ***P<0.001 when compared with vehicle treatment.
Results are shown as percent change normalized to the vehicle treatment condition. The horizontal hard line depicts average and the dotted lines depict SEM of the vehicle treated wells. Representative Western blot images are presented. […] Representative Western blot images are presented. […] The drugs (5 mg/kg) were administered subchronically (at 24 h, 4 h and 30 min prior to sacrifice) to HDAC6 KO and WT littermates. The changes in tubulin acetylation were measured in tissue lysates from cortex (ctx), hippocampus (Hpc), dorsal Raphe nucleus (DRN) and cerebellum (cb). The tubulin acetylation levels in drug-treated mice are expressed as percent change of the vehicle-treated mice of the corresponding genotype. The horizontal lines depict the average tubulin acetylation±SEM in the vehicle treated mice. The representative Western blot images show the changes induced by each drug treatment in the hippocampus (left column) and dorsal raphe (right column) of WT and HDAC6 KO mice.
In contrast to the class I isoforms HDAC2 and 3, which are expressed highly and ubiquitously in the mouse brain, HDAC6 mRNA expression appears to be restricted to a small number of brain areas, with highest signal observed in DRN (FIG. 13f). […] No changes in total α-tubulin expression were detected (FIG. 14a).

[8] = system: RN46A-B14 serotonergic cell line; assay: Histone H3K9 acetylation in RN46A-B14 cells (Western blot); assay type: cell-based, rat; settings: 2.5 μM, 4 hours

For `O=C(NO)c1cnc(NC2(c3cccc(F)c3)CCCCC2)nc1` [Compound 101, 2-((1-(3-fluorophenyl)cyclohexyl)amino)-N-hydroxypyrimidine-5-carboxamide], which IC50 [1] is on record?
The IC50 was > 1000 nM.

And the IC50 (HDAC6)?
Its IC50 is 7.5 nM.

And the “average selectivity over class I HDACs” value (HDAC6)?
Its value is 700 fold.

What about the “HDAC3 fold versus HDAC6 (in brackets)” value (HDAC3) of the same molecule?
Its value is “(1498.8x)”.

What about the “HDAC3 fold versus HDAC6 (in brackets)” value (HDAC3; Table 3) of the same molecule?
Its value is 1496 x.

What about the “immobility in TST” value ([2]; 5 mg/kg) of the same molecule?
Its value is “No significant effect”.

What about the “immobility in TST” value ([2]; 50 mg/kg i.p., 30 minutes) of the same molecule?
Its value is “Significant reductions”.

And the “α-tubulin acetylation in whole brain lysates” value [3]?
The value was “significant increases”.

And the body weight gain [4]?
Its body weight gain is “no significant effect”.

What about the “exploratory activity in novel open-field arena” value (mice [5]; acute, compounds 73, 101 50 mg/kg, tubastatin A 10 mg/kg) of the same molecule?
The value was “hyperlocomotor effects”.

And the “distance in the center of the open field” value (mice [5]; mouse, in vivo)?
Its value is 419±73 beam breaks.

And the “open-field exploration in neural cell selective HDAC6 KO mice” value (mice [5]; same doses (50 mg/kg))?
The value was “did not significantly alter”.

What about the “number of marbles buried” value (mice [6]) of the same molecule?
The value was “significantly reduced”.

What about the “acetylated (lysine 40) fraction of α-tubulin” value [7] of the same molecule?
The value was “increases”.

And the “change in histone H3K9 acetylation” value [8]?
Its value is “no significant change”.
